Consider 19 compounds from patent US20250263424A1, “KRAS INHIBITORS” (Bristol-Myers Squibb Company, priority 2022, published 2025).

The structures appear in SMILES notation. Read-outs that look alike come from different tables or passages of the source.

For this experiment, the target named is Recombinant GMPPNP-loaded KRAS G12C (KRAS-G12C(ON), active form) (Homo sapiens, UniProt P01116, G12C). Put plainly: KRAS G12C RAF Disruption Assay (HTRF). Format: biochemical. The conditions noted are these: GMPPNP-loaded KRAS G12C 5 nM, GST-RAF1 RBD 9 nM, read-out: KRASG12C RAF Disruption Assay (IC50). Here is the method:
This is a functional assay that measures activity of compounds against […]., the active form of KRAS G12C. Recombinant GMPPNP-loaded KRAS G12C (5 nM) was treated with compound at room temperature for 20 minutes in assay buffer (50 mM Tris pH 7.5, 100 mM NaCl, 1 mM MgCl2, 1 mM DTT, 100 μg/ml BSA). Recombinant GST-RAF1 RBD (9 nM) was added, and the reaction mixture was incubated for 20 minutes. SA-Tb (0.25 nM) was added, and the reaction mixture was incubated for 3 hours. HTRF signal was measured (PerkinElmer Envision), the signal ratio (λem 520/λem 495) was calculated, and IC50 values were calculated from the dose-response curve.
Background: Time-resolved FRET reads energy transfer from a long-lived donor to a nearby acceptor.

Sequence of Recombinant GMPPNP-loaded KRAS G12C (KRAS-G12C(ON), active form) (P01116 1-188 isoform P01116-2 G12C): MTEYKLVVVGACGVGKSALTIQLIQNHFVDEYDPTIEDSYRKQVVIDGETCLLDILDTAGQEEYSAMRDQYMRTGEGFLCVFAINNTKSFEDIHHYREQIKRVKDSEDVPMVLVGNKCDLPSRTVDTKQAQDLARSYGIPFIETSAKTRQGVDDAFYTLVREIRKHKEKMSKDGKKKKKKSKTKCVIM

One may read the IC50 as the midpoint of a concentration-inhibition curve. In the case of `Cc1cccc(/C=C(\F)C(=O)N2CCN(c3nc(OC[C@@H]4CCCN4C)nc4c(F)c(-c5cc(O)cc6ccccc56)ccc34)C[C@@H]2CC#N)n1` [Example 34, 2-((S)-1-((Z)-2-fluoro-3-(6-methylpyridin-2-yl)acryloyl)-4-(8-fluoro-7-(3-hydroxynaphthalen-1-yl)-2-(((S)-1-methylpyrrolidin-2-yl)methoxy)quinazolin-4-yl)piperazin-2-yl)acetonitrile], the concentration for half-maximal inhibition (IC50) (values in nM) amounted to 27 nM. Same read-out and setting: the figure for `CCc1cccc2cccc(-c3ccc4c(N5CCN(C(=O)/C(F)=C/c6nccs6)[C@@H](CC#N)C5)nc(OC[C@@H]5CCCN5C)nc4c3F)c12` [Example 60, 2-((S)-4-(7-(8-ethylnaphthalen-1-yl)-8-fluoro-2-(((S)-1-methylpyrrolidin-2-yl)methoxy)quinazolin-4-yl)-1-((Z)-2-fluoro-3-(thiazol-2-yl)acryloyl)piperazin-2-yl)acetonitrile] is 170 nM; for `Cc1cc(N)nc(-c2c(Cl)cc3c(N4CCC(CNC(=O)C(F)=Cc5ccccn5)CC4)nc(OCC4CCCN4C)nc3c2F)c1C(F)(F)F` [Example 44, (2Z)-N-({1-[(7M)-7-[6-amino-4-methyl-3-(trifluoromethyl)pyridin-2-yl]-6-chloro-8-fluoro-2-{[(2S)-1-methylpyrrolidin-2-yl]methoxy}quinazolin-4-yl]piperidin-4-yl}methyl)-2-fluoro-3-(pyridin-2-yl)prop-2-enamide] it is 350 nM; for `C#Cc1c(F)ccc2cc(O)cc(-c3ccc4c(N5C[C@H]6CC[C@@H](C5)N6C(=O)/C(F)=C/c5ccccn5)nc(OC[C@@H]5CCCN5C)nc4c3F)c12` [Example 22, (Z)-1-((1R,5S)-3-(7-(8-ethynyl-7-fluoro-3-hydroxynaphthalen-1-yl)-8-fluoro-2-(((S)-1-methylpyrrolidin-2-yl)methoxy)quinazolin-4-yl)-3,8-diazabicyclo[3.2.1]octan-8-yl)-2-fluoro-3-(pyridin-2-yl)prop-2-en-1-one] it is 260 nM. Same read-out and setting: next, `COc1ccc(Cl)cc1-c1ccc2c(N3CCN(C(=O)/C(F)=C/c4nccs4)[C@@H](CC#N)C3)nc(OC[C@@H]3CCCN3C)nc2c1F` [Example 62, 2-((S)-4-(7-(5-chloro-2-methoxyphenyl)-8-fluoro-2-(((S)-1-methylpyrrolidin-2-yl)methoxy)quinazolin-4-yl)-1-((Z)-2-fluoro-3-(thiazol-2-yl)acryloyl)piperazin-2-yl)acetonitrile]: 3100 nM.

Consider `CN1CCC[C@H]1COc1nc(N2CCN(C(=O)/C(F)=C/c3ncccn3)CC2)c2ccc(-c3cc(O)cc4ccccc34)c(F)c2n1` [Example 32, (S,Z)-2-fluoro-1-(4-(8-fluoro-7-(3-hydroxynaphthalen-1-yl)-2-((1-methylpyrrolidin-2-yl)methoxy)quinazolin-4-yl)piperazin-1-yl)-3-(pyrimidin-2-yl)prop-2-en-1-one], for which the IC50 (values in nM) was determined as 290 nM. On the same count and under the same terms, the figure for `Cc1ccc2[nH]ncc2c1-c1ccc2c(N3CCN(C(=O)/C(F)=C/c4cccnn4)[C@@H](CC#N)C3)nc(OC[C@@H]3CCCN3C)nc2c1F` [Example 53] is 70 nM. On the same count and under the same terms, next, `Cc1cc2[nH]ncc2c(-c2ccc3c(N(C)[C@@H]4CCN(C(=O)/C(F)=C/c5ccccn5)C4)nc(OC[C@@]45CCCN4C[C@H](F)C5)nc3c2F)c1Cl` [Example 83, (Z)-1-((3R)-3-((7-(5-chloro-6-methyl-1H-indazol-4-yl)-8-fluoro-2-(((2R,7aS)-2-fluorotetrahydro-1H-pyrrolizin-7a(5H)-yl)methoxy)quinazolin-4-yl)(methyl)amino)pyrrolidin-1-yl)-2-fluoro-3-(pyridin-2-yl)prop-2-en-1-one]: 22 nM.

Consider `Cc1cc(N)nc(-c2c(Cl)cc3c(N4CCN(C(=O)/C(F)=C/c5nccs5)[C@@H](CC(N)=O)C4)nc(OC[C@@H]4CCCN4C)nc3c2F)c1C(F)(F)F` (atropisomer, axis not shown; (M)) [Example 47, 2-[(2S)-4-[(7M)-7-[6-amino-4-methyl-3-(trifluoromethyl)pyridin-2-yl]-6-chloro-8-fluoro-2-{[(2S)-1-methylpyrrolidin-2-yl]methoxy}quinazolin-4-yl]-1-[(2Z)-2-fluoro-3-(thiazol-2-yl)prop-2-enoyl]piperazin-2-yl]acetamide], for which the IC50 (values given in μM) worked out at 1330 nM. Take `C#Cc1cccc2cccc(-c3ccc4c(N5CCN(C(=O)/C(F)=C/c6ccccn6)[C@@H](CC#N)C5)nc(OC[C@@]56CCCN5C[C@H](F)C6)nc4c3F)c12` [Example 85, 2-((S)-4-(7-(8-ethynylnaphthalen-1-yl)-8-fluoro-2-(((2R,7aS)-2-fluorotetrahydro-1H-pyrrolizin-7a(5H)-yl)methoxy)quinazolin-4-yl)-1-((Z)-2-fluoro-3-(pyridin-2-yl)acryloyl)piperazin-2-yl)acetonitrile]: under “values in nM”, the IC50 stood at 25 nM. On the same count and under the same terms, the figure for `Cc1cc(N)nc(-c2c(Cl)cc3c(N4C[C@]5(NC(=O)/C(F)=C/c6ccccn6)CC[C@H]4C5)nc(OC[C@]45CCCN4C[C@H](F)C5)nc3c2F)c1C(F)(F)F` (atropisomer, axis not shown; (M)) [Example 43, (2Z)-N-[(1S,4S)-2-[(7M)-2-{[(2R,7aR)-2-fluoro-hexahydro-1H-pyrrolizin-7a-yl]methoxy}-7-[6-amino-4-methyl-3-(trifluoromethyl)pyridin-2-yl]-6-chloro-8-fluoroquinazolin-4-yl]-2-azabicyclo[2.2.1]heptan-4-yl]-2-fluoro-3-(pyridin-2-yl)prop-2-enamide] is 190 nM. On the same count and under the same terms, next, `COc1ccc(Cl)cc1-c1ccc2c(N3CCN(C(=O)/C(F)=C/c4cnccn4)[C@@H](CC#N)C3)nc(OC[C@@H]3CCCN3C)nc2c1F` [Example 64]: 61000 nM; `Cc1cc(N)nc(-c2c(Cl)cc3c(N4CC[C@@H]5CC[C@H](C4)N5C(=O)/C(F)=C/c4nccs4)nc(OC[C@]45CCC[C@H]4N(C)CCC5)nc3c2F)c1C(F)(F)F` [Example 70, (Z)-1-((1R,6S)-3-(7-(6-amino-4-methyl-3-(trifluoromethyl)pyridin-2-yl)-6-chloro-8-fluoro-2-(((4aS,7aR)-1-methyloctahydro-4aH-cyclopenta[b]pyridin-4a-yl)methoxy)quinazolin-4-yl)-3,9-diazabicyclo[4.2.1]nonan-9-yl)-2-fluoro-3-(thiazol-2-yl)prop-2-en-1-one]: 7900 nM; `N#CC[C@H]1CN(c2nc(OC[C@@]34CCCN3C[C@H](F)C4)nc3c(F)c(-c4cc(O)cc5ccccc45)ccc23)CCN1C(=O)/C(F)=C/c1ccccn1` [Example 39, 2-((S)-4-(8-fluoro-2-(((2R,7aS)-2-fluorotetrahydro-1H-pyrrolizin-7a(5H)-yl)methoxy)-7-(3-hydroxynaphthalen-1-yl)quinazolin-4-yl)-1-((Z)-2-fluoro-3-(pyridin-2-yl)acryloyl)piperazin-2-yl)acetonitrile]: 23 nM. The same measure, in the same setting: next, `CN1CCC[C@H]1COc1nc(N2CCN(C(=O)/C(F)=C/c3ncccn3)[C@@H](CC#N)C2)c2ccc(-c3cc(Cl)ccc3OC(F)(F)F)c(F)c2n1` [Example 67, 2-((S)-4-(7-(5-chloro-2-(trifluoromethoxy)phenyl)-8-fluoro-2-(((S)-1-methylpyrrolidin-2-yl)methoxy)quinazolin-4-yl)-1-((Z)-2-fluoro-3-(pyrimidin-2-yl)acryloyl)piperazin-2-yl)acetonitrile]: 4700 nM. `N#CC[C@H]1CN(c2nc(OC[C@@]34CCCN3C[C@H](F)C4)nc3c(F)c(-c4cccc5cccc(Cl)c45)ccc23)CCN1C(=O)/C(F)=C/c1ccccn1` [Example 41, 2-((S)-4-(7-(8-chloronaphthalen-1-yl)-8-fluoro-2-(((2R,7aS)-2-fluorotetrahydro-1H-pyrrolizin-7a(5H)-yl)methoxy)quinazolin-4-yl)-1-((Z)-2-fluoro-3-(pyridin-2-yl)acryloyl)piperazin-2-yl)acetonitrile]: the IC50 (values in nM) worked out at 46 nM. Still for that read-out and setting: the figure for `Cc1cc(N)nc(-c2c(Cl)cc3c(N4C[C@]5(NC(=O)/C(F)=C/c6nccs6)CC[C@H]4C5)nc(OC[C@@H]4CCCN4C)nc3c2F)c1C(F)(F)F` (atropisomer, axis not shown) [Example 69, (Z)-N-((1S,4S)-2-(7M-(6-amino-4-methyl-3-(trifluoromethyl)pyridin-2-yl)-6-chloro-8-fluoro-2-(((S)-1-methylpyrrolidin-2-yl)methoxy)quinazolin-4-yl)-2-azabicyclo[2.2.1]heptan-4-yl)-2-fluoro-3-(thiazol-2-yl)acrylamide] is 2600 nM. `Cc1cc(N)nc(-c2c(Cl)cc3c(N4CC5CN(C(=O)/C(F)=C/c6nccs6)C5C4)nc(OC[C@]45CCCN4C[C@H](F)C5)nc3c2F)c1C(F)(F)F` (single isomer, unassigned) [Example 15, Isomer 2]: the IC50 (values given in μM) came out at 47400 nM. On the same count and under the same terms, next, `C[C@H]1CN(C(=O)/C(F)=C/c2nccs2)CCN1c1nc(OC[C@@H]2CCCN2C)nc2c(F)c(-c3cccc4cccc(Cl)c34)c(Cl)cc12` [Example 1, (Z)-1-((3S)-4-(6-chloro-7-(8-chloronaphthalen-1-yl)-8-fluoro-2-(((S)-1-methylpyrrolidin-2-yl)methoxy)quinazolin-4-yl)-3-methylpiperazin-1-yl)-2-fluoro-3-(thiazol-2-yl)prop-2-en-1-one]: 49000 nM.
